The text below walks through data of publication PMC7353089, “The Hepatotoxicity of Alantolactone and Germacrone: Their Influence on Cholesterol and Lipid Metabolism in Differentiated HepaRG Cells” (Nutrients, 2020).

What all share (assay type): cell-based, human
Conditions in all cases: multiple exposure: four applications every 24 h, analyzed 12 h after the last; 30 μM ATL, 100 μM GER, 20 μM LOV

For one assay, the system named is HMGCR mRNA. The assay can be described thus: RT-qPCR mRNA expression in dHepaRG cells. As to the method:
The mRNA and protein expression changes were measured after a single administration of ALA and GER. Three concentrations were selected for each compound (non-toxic, non-toxic/slightly toxic and toxic). The cholesterol level of the dHepaRG cells was measured after a multiple exposure of the highest non-toxic concentrations of tested compounds. ATL (30 µM) and GER (100 µM) were administered four times every 24 h. The expression changes of genes and proteins related to cholesterol metabolism were measured in both single and multiple exposure experiments.
All treatments were performed in triplicates and every experiment was performed three times. The cells were washed twice with ice cold phosphate-buffered saline (PBS), scrapped and stored at −80 °C until use. Total RNA from cells was isolated using TriReagent according to the manufacturer’s instructions (Biotech, Prague, Czech Republic). The purified RNA was dissolved in 40 µL of diethyl pyrocarbonate (DEPC)-treated water (0.01% DEPC in HPLC water, autoclaved) and stored at −80 °C. The measurement of absorbance at 260 and 280 nm using the NanoDrop ND-1000 UV–VIS Spectrophotometer (Thermo Fisher Scientific, Pardubice, Czech Republic) was used to determine RNA yields and purity. Subsequently, the RNA (4 µg) was treated with 2 U of DNase I (New England Biolabs, Ipswich, MA, USA) in a final volume of 30 µL for 25 min at 37 °C, 1.5 µL of 0.1 M ethylenediaminetetraacetic acid was added and the DNAse was inactivated by heat (5 min at 75 °C). The solution was diluted to a concentration of 0.1 µg/µL. The DNAse treated RNA was stored at −80 °C until further analyses. […] Fluorescence data were recorded at the end of each amplification step. Relative expression levels of the target genes were calculated as fold changes in triplicates for each group using the 2^−ΔΔCt method by normalization to the geometric mean of the Ct values of Sdha and Ywhaz, which were used as reference genes.

The subject of the next assay is HMGCS mRNA. The assay can be described thus: RT-qPCR mRNA expression in dHepaRG cells. (In general: Quantitative PCR measures a nucleic acid by following its amplification.)
The test system of a further assay is SREBP-2 (F). The assay can be described thus: Western blot protein level in dHepaRG cells. As to the method: All the treatments were performed in triplicates. Protein concentration was measured using the bicinchoninic acid (BCA) protein assay (Sigma Aldrich, Prague, Czech Republic) according to the manufacturer’s instructions. The proteins were loaded onto a 10% sodium dodecyl sulfate (SDS; w/v)–polyacrylamide gel (with 4% stacking gel) and separated by SDS-PAGE electrophoresis. The proteins were transferred onto a nitrocellulose membrane using wet blot (100 V, 90 min). The membrane blocking was performed in a 5% non-fat dry milk/TRIS-buffered saline-Tween-20 (TBS-T) solution at room temperature for 2 h. Incubation with primary antibodies was accomplished overnight at 10 °C. β-actin was used as housekeeping protein (the list of primary antibodies in Table S2). Afterwards, the membrane was washed with 0.05% TBS-T solution for 6 × 5 min, incubated with respective secondary antibodies conjugated with horseradish peroxidase (bovine anti-rabbit (sc2370, Santa Cruz Biotechnology, Santa Cruz, CA, USA) at room temperature for 1.5 h, and rinsed with TBS-T solution for 6 × 5 min. Visualization of protein bands was carried out using a chemiluminescence kit (GE Healthcare, Buckinghamshire, UK).
In general terms: In western blotting, separated proteins are transferred to a membrane and probed.

Protocol for HMGCS mRNA: Three concentrations were selected for each compound (non-toxic, non-toxic/slightly toxic and toxic). The cholesterol level of the dHepaRG cells was measured after a multiple exposure of the highest non-toxic concentrations of tested compounds. […] The expression changes of genes and proteins related to cholesterol metabolism were measured in both single and multiple exposure experiments.
All treatments were performed in triplicates and every experiment was performed three times. The cells were washed twice with ice cold phosphate-buffered saline (PBS), scrapped and stored at −80 °C until use. Total RNA from cells was isolated using TriReagent according to the manufacturer’s instructions (Biotech, Prague, Czech Republic). The purified RNA was dissolved in 40 µL of diethyl pyrocarbonate (DEPC)-treated water (0.01% DEPC in HPLC water, autoclaved) and stored at −80 °C. The measurement of absorbance at 260 and 280 nm using the NanoDrop ND-1000 UV–VIS Spectrophotometer (Thermo Fisher Scientific, Pardubice, Czech Republic) was used to determine RNA yields and purity. Subsequently, the RNA (4 µg) was treated with 2 U of DNase I (New England Biolabs, Ipswich, MA, USA) in a final volume of 30 µL for 25 min at 37 °C, 1.5 µL of 0.1 M ethylenediaminetetraacetic acid was added and the DNAse was inactivated by heat (5 min at 75 °C). The solution was diluted to a concentration of 0.1 µg/µL. The DNAse treated RNA was stored at −80 °C until further analyses. The first strand cDNA was synthesized from 800 ng of total RNA and 1 µL of 50 µM random hexamers (Generi Biotech, Hradec Kralove, Czech Republic) using ProtoScript II reverse transcriptase (New England Biolabs, Ipswich, MA, USA). After the initial heat denaturation of total RNA (65 °C for 5 min), 4 µL of 5× ProtoScript II RT Reaction Buffer, 2 µL of 10× dithiothreitol (DTT), 2 µL of deoxynucleotide (dNTP) Mix 5 mM, 3.5 µL of H2O, and 0.5 µL of ProtoScript II 200 U/µL were added and mixed by pipetting. The reactions (20 µL) were incubated for 10 min at 25 °C, for 50 min at 42 °C, and for 5 min at 80 °C. The obtained cDNAs were diluted 1:6 by DEPC water. The qPCR analyses were carried out using QuantStudio 6 Flex (Applied Biosystems, Foster City, CA, USA) with SYBR green I (Xceed qPCR SG Mix, Institute of Applied Biotechnologies, Prague, Czech Republic) detection according to the manufacturer’s protocol. […] Fluorescence data were recorded at the end of each amplification step. Relative expression levels of the target genes were calculated as fold changes in triplicates for each group using the 2^−ΔΔCt method [28] by normalization to the geometric mean of the Ct values of Sdha and Ywhaz, which were used as reference genes.

As for `CC[C@H](C)C(=O)O[C@H]1C[C@@H](C)C=C2C=C[C@H](C)[C@H](CC[C@@H]3C[C@@H](O)CC(=O)O3)[C@H]21` [LOV, lovastatin, reference compound], in the assay with HMGCR mRNA, the “HMGCR mRNA level” value is “decreased significantly”. Moreover, the “HMGCS mRNA level” value in the assay on HMGCS mRNA is “decreased significantly”. In addition, in the assay with SREBP-2 (F), the “SREBP-2 (F) protein level” value is given as “decreased”.
